Measurements: ChEMBL document CHEMBL1240370, “Effects of immunomodulatory and organism-associated molecules on the permeability of an in vitro blood-brain barrier model to amphotericin B and fluconazole” (Antimicrob Agents Chemother, 2010)

Key:
Type in all cases: ADME, cell-based, Bos taurus
Conditions in all cases: cattle, c6, 24 h
[1] = Permeability across BBMEC cocultured with rat C6 cell BBB model after 24 hrs in presence of 0.1 ug/ml interleukin-2
[2] = Permeability across BBMEC cocultured with rat C6 cell BBB model after 24 hrs in presence of 0.01 ug/ml tacrolimus-506
[3] = Permeability across BBMEC cocultured with rat C6 cell BBB model after 24 hrs in presence of 0.1 ug/ml lipoteichoic acid
[4] = Permeability across BBMEC cocultured with rat C6 cell BBB model after 24 hrs in presence of 1 ug/ml Dexamethasone
[5] = Permeability across BBMEC cocultured with rat C6 cell BBB model after 24 hrs in presence of 0.1 ug/ml lipopolysaccharide
[6] = Permeability across BBMEC co-cultured with rat C6 cell BBB model after 24 hrs in presence of 0.01 ug/ml interleukin-1
[7] = Permeability across BBMEC cocultured with rat C6 cell BBB model after 24 hrs in presence of 0.01 ug/ml TNF
[8] = Permeability across BBMEC cocultured with rat C6 cell BBB model after 24 hrs in presence of 0.1 ug/ml tacrolimus-506
[9] = Permeability across BBMEC cocultured with rat C6 cell BBB model after 24 hrs in presence of 1 ug/ml lipopolysaccharide
[10] = Permeability across BBMEC cocultured with rat C6 cell BBB model after 24 hrs in presence of 0.1 ug/ml Dexamethasone
[11] = Permeability across BBMEC cocultured with rat C6 cell BBB model after 24 hrs in presence of 0.1 ug/ml TNF

Measured: permeability

OC(Cn1cncn1)(Cn1cncn1)c1ccc(F)cc1F [FLUCONAZOLE]
permeable: all assays above
